Test results taken from US8716475B2, “2-aminopyrimidine modulators of the histamine H4 receptor” (Janssen Pharmaceutica NV, priority 2007, dated 2014).

molecular target: T1, human H4 receptor (Homo sapiens, UniProt Q9H3N8); experiment: Binding Assay on Recombinant Human Histamine H4 Receptor; details: Table 1; [3H] histamine competition binding, membranes of SK-N-MC cells transfected with human H4 receptor; average of results
T1 construct: expressed in transfected cells
Protocol: Binding Assay on Recombinant Human Histamine H4 Receptor.
Cell pellets from SK-N-MC cells stably or transiently transfected with human H4 receptor were used for the binding assays. Cell pellets were homogenized in 50 mM Tris/5 mM EDTA buffer and supernatants from an 800g spin were collected and recentrifuged at 30,000g for 30 min. Pellets were rehomogenized in 50 mM Tris/5 mM EDTA buffer. […] Compounds were tested in free base, hydrochloride salt, or trifluoroacetic acid form. Nonspecific binding was defined with 100 μM cold histamine. […] Membranes were harvested by rapid filtration using the 96 well Brandel system or a cell harvester using a Whatman GF/C filter or filter plates treated with 0.5% polyethylenimine (PEI), and washed 4 times with ice-cold 50 mM Tris/5 mM EDTA buffer. Filters were then dried, mixed with scintillant and radioactive counts were determined. […] Data marked with an asterisk (*) were obtained by the cell harvester method. Where activity is shown as greater than (>) a particular value, the value is the highest concentration tested.

Ki [nM]	Structure (SMILES)
77	CN[C@@H]1CCN(c2cc(C)nc(N)n2)C1 [Example 23, (R)-4-Methyl-6-(3-methylamino-pyrrolidin-1-yl)-pyrimidin-2-ylamine]
> 10000	Cc1nc(N)nc(N2CC[C@@H](N)C2)c1C [Example 27, (R)-4-(3-Amino-pyrrolidin-1-yl)-5,6-dimethyl-pyrimidin-2-ylamine]
159	CN[C@@H]1CCN(c2nc(N)nc3c2CCC3)C1 [Example 75, (R)-4-(3-Methylamino-pyrrolidin-1-yl)-6,7-dihydro-5H-cyclopentapyrimidin-2-ylamine]
31	CN[C@@H]1CCN(c2cc(C3CCOCC3)nc(N)n2)C1 [Example 60, (R)-4-(3-Methylamino-pyrrolidin-1-yl)-6-(tetrahydro-pyran-4-yl)-pyrimidin-2-ylamine]

Structure (SMILES)	Ki [nM]
Nc1nc(C2CCCC2)cc(N2CC3CCNC3C2)n1 (stereo not drawn) [Example 6, 4-Cyclopentyl-6-(cis-hexahydro-pyrrolo[3,4-b]pyrrol-5-yl)-pyrimidin-2-ylamine]	6
Nc1nc(C2CCCCC2)cc(N2C[C@H]3CCCN[C@H]3C2)n1 [Example 55, (R,R)-4-Cyclohexyl-6-(octahydro-pyrrolo[3,4-b]pyridin-6-yl)-pyrimidin-2-ylamine]	1
Cc1cc(N2CC3CCCNC3C2)nc(N)n1 (stereo not drawn) [Example 24, 4-Methyl-6-(cis-octahydro-pyrrolo[3,4-b]pyridin-6-yl)-pyrimidin-2-ylamine]	49

same assay, conditions: Table 2, data marked with an asterisk (*): obtained by the cell harvester method; [3H] histamine competition binding, SK-N-MC membranes

Structure (SMILES)	Ki [nM]
CCCCc1nc(N)nc(N2CC[C@@H](N)C2)c1OC [Example 104, (R)-4-(3-Amino-pyrrolidin-1-yl)-6-butyl-5-methoxy-pyrimidin-2-ylamine]	96
CC(C)(C)c1cc(N2C[C@H]3CNC[C@H]3C2)nc(N)n1 [Example 132, 4-tert-Butyl-6-(cis-hexahydro-pyrrolo[3,4-c]pyrrol-2-yl)-pyrimidin-2-ylamine]	356

same assay, conditions: Table 2; [3H] histamine competition binding, membranes of SK-N-MC cells transfected with human H4 receptor; average of results

Ki [nM]	Structure (SMILES)
298	Nc1nc2c(c(N3CC[C@@H](N)C3)n1)COCC2 [Example 98, (R)-4-(3-Amino-pyrrolidin-1-yl)-7,8-dihydro-5H-pyrano[4,3-d]pyrimidin-2-ylamine]
15	COCc1cc(N2CCN(C)CC2)nc(N)n1 [Example 223, 4-Methoxymethyl-6-(4-methyl-piperazin-1-yl)-pyrimidin-2-ylamine]
22	CCOCc1cc(N2CC[C@@H](N)C2)nc(N)n1 [Example 242, (R)-Ethoxymethyl-6-(3-amino-pyrrolidin-1-yl)-pyrimidin-2-ylamine]
5	CN[C@@H]1CCN(c2cc(C3CC3c3ccccc3)nc(N)n2)C1 (single isomer, unassigned) [Example 256]
23	CC(C)c1cc(N2CC[C@H](N)C2)nc(N)n1 [Example 126, (S)-4-(3-Amino-pyrrolidin-1-yl)-6-isopropyl-pyrimidin-2-ylamine]
45	Nc1nc(Cc2ccncc2)cc(N2CCNCC2)n1 [Example 204, 4-piperazin-1-yl-6-pyridin-4-ylmethyl-pyrimidin-2-ylamine]
19	CN[C@@H]1CCN(c2cc(Cc3cccs3)nc(N)n2)C1 [Example 214, (R)-4-(3-Methylamino-pyrrolidin-1-yl)-6-thiophen-2-ylmethyl-pyrimidin-2-ylamine]
203	NCCCNc1cc(C2CCOC2)nc(N)n1 (centres unmarked) [Example 196, N^4-(3-Amino-propyl)-6-(tetrahydro-furan-3-yl)-pyrimidine-2,4-diamine]

Structure (SMILES)	Ki [nM]
COCc1cc(N2C[C@H]3CCCN[C@H]3C2)nc(N)n1 [Example 226, (R,R)-4-Methoxymethyl-6-(octahydro-pyrrolo[3,4-b]pyridin-6-yl)-pyrimidin-2-ylamine]	14
Nc1nc2c(c(N3C[C@H]4CCCN[C@H]4C3)n1)COCC2 [Example 97, (R,R)-4-(Octahydro-pyrrolo[3,4-b]pyridin-6-yl)-7,8-dihydro-5H-pyrano[4,3-d]pyrimidin-2-ylamine]	20
CCCCc1cc(N2CC3CCC(C2)N3)nc(N)n1 [Example 143, 4-Butyl-6-(3,8-diaza-bicyclo[3.2.1]oct-3-yl)-pyrimidin-2-ylamine]	13
